According to patent US11414424B2, “Cardiac sarcomere inhibitors” (Cytokinetics, Inc., priority 2018, dated 2022):

Test system: bovine cardiac myofibrils
Experiment: Myofibril assay: PK/LDH-coupled steady-state ATPase activity of skinned bovine cardiac myofibrils
Type: biochemical
Conditions: Ca2+ activating to 75% of maximal rate
In short: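 Steady-state ATPase of detergent-skinned bovine left-ventricular myofibrils (1 mg/mL), PK/LDH-coupled NADH read at 340 nm, in PIPES/MgCl2 buffer pH 6.8 with 50 μM ATP, 0.6 mM EGTA and CaCl2 set for 50% or 75% activation. Inhibition of activity measured.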

CDMF75 IC15	SMILES
17.6 µM	CC(C)N1CC(=O)N(Cc2ccc(Cl)cc2)C2(CN(C(=O)Nc3cnn(C)c3)C2)C1=O [Compound 66, 5-(4-chlorobenzyl)-8-isopropyl-N-(1-methyl-1H-pyrazol-4-yl)-6,9-dioxo-2,5,8-triazaspiro[3.5]-nonane-2-carboxamide]
1.6 µM	CNC(=O)N1CC2(C1)C(=O)N(c1ccc(C#N)cc1)CC(=O)N2Cc1ccc(Cl)cc1 [Compound 164, 5-(4-chlorobenzyl)-8-(4-cyanophenyl)-N-methyl-6,9-dioxo-2,5,8-triazaspiro-[3.5]nonane-2-carboxamide]
2.4 µM	Cc1ccc(N2CC3(C2)C(=O)N(C(C)C)CC(=O)N3Cc2ccc(Cl)cc2)nc1 [Compound 9, 5-(4-chlorobenzyl)-8-isopropyl-2-(5-methyl-pyridin-2-yl)-2,5,8-triazaspiro[3.5]nonane-6,9-dione]
4.6 µM	Cc1cc(N2CCC3(C2)C(=O)N(C(C)C)CC(=O)N3Cc2ccc(Cl)cc2)ccn1 (stereo not drawn) [Compound 129, 6-(4-chlorobenzyl)-9-isopropyl-2-(2-methyl-pyridin-4-yl)-2,6,9-triazaspiro-[4.5]decane-7,10-dione]
22.9 µM	CC(C)N1CC(=O)N(Cc2ccc(Cl)cc2)C2(CN(c3cnnc(Cl)c3)C2)C1=O [Compound 61, 5-(4-chlorobenzyl)-2-(6-chloropyridazin-4-yl)-8-isopropyl-2,5,8-triazaspiro[3.5]nonane-6,9-dione]
1.7 µM	N#Cc1ccc(N2CC(=O)N(Cc3ccc(Cl)cc3)C3(CCN(C(=O)C4COC4)C3)C2=O)c(F)c1 (stereo in doubt) [Compound 210, (S)-4-(6-(4-chlorobenzyl)-2-(oxetane-3-carbonyl)-7,10-dioxo-2,6,9-triazaspiro[4.5]decan-9-yl)-3-fluorobenzonitrile]
0.7 µM	N#Cc1ccc(N2CCC3(C2)C(=O)N(c2ccc([N+](=O)[O-])cc2)CC(=O)N3Cc2ccc(Cl)cc2)nc1 (stereo not drawn) [Compound 348, 6-(6-(4-chlorobenzyl)-9-(4-nitrophenyl)-7,10-dioxo-2,6,9-triazaspiro[4.5]decan-2-yl)nicotinonitrile]
0.5 µM	CCC(=O)N1CC[C@]2(C1)C(=O)N(c1ccc(C#N)cc1F)CC(=O)N2Cc1ccc(Cl)cc1 [Compound 214, (S)-4-(6-(4-chlorobenzyl)-7,10-dioxo-2-propionyl-2,6,9-triazaspiro[4.5]decan-9-yl)-3-fluorobenzonitrile]
4.1 µM	CC(C)N1CC(=O)N(Cc2ccc(Cl)cc2)C2(CCN(c3cnn(C)c3)C2)C1=O (stereo not drawn) [Compound 78, 6-(4-chlorobenzyl)-9-isopropyl-2-(1-methyl-1H-pyrazol-4-yl)-2,6,9-triazaspiro[4.5]decane-7,10-dione]
1.3 µM	O=C1CN(C2CCCC2)C(=O)C2(CCN(c3ccccn3)C2)N1Cc1ccc(Cl)cc1 (stereo not drawn) [Compound 83, 6-(4-chlorobenzyl)-9-cyclopentyl-2-(pyridin-2-yl)-2,6,9-triazaspiro[4.5]-decane-7,10-dione]
3.1 µM	CC(C)N1CC(=O)N(Cc2ccc(Cl)cc2)C2(CN(c3cncc(F)c3)C2)C1=O [Compound 18, 5-(4-chlorobenzyl)-2-(5-fluoropyridin-3-yl)-8-isopropyl-2,5,8-triazaspiro[3.5]nonane-6,9-dione]
3.3 µM	Cc1csc(N2CC3(C2)C(=O)N(C(C)C)CC(=O)N3Cc2ccc(Cl)cc2)n1 [Compound 43, 5-(4-chlorobenzyl)-8-isopropyl-2-(4-methyl-thiazol-2-yl)-2,5,8-triazaspiro[3.5]nonane-6,9-dione]

The next lines start with the compound.

SMILES	CDMF75 IC15
CC(C)C(=O)N1CC[C@]2(C1)C(=O)N(c1ccc(C#N)cc1F)CC(=O)N2Cc1ccc(C(F)(F)F)cc1 [Compound 223, (S)-3-fluoro-4-(2-isobutyryl-7,10-dioxo-6-(4-(trifluoromethyl)benzyl)-2,6,9-triazaspiro[4.5]decan-9-yl)benzonitrile]	2.3 µM
Cc1cc(CN2C(=O)CN(c3ncc(Cl)cc3C)C(=O)C2C2COC2)ccc1F (stereo not drawn) [Compound 727, 1-(5-chloro-3-methyl-pyridin-2-yl)-4-(4-fluoro-3-methylbenzyl)-3-(oxetan-3-yl)piperazine-2,5-dione]	3.2 µM
O=C1C(C2COC2)N(Cc2ccc(Cl)cc2)C(=O)CN1c1ncc(Cl)cc1F (stereo not drawn) [Compound 633, 1-(5-chloro-3-fluoropyridin-2-yl)-4-(4-chlorobenzyl)-3-(oxetan-3-yl)piperazine-2,5-dione]	1.3 µM
O=C1C(C2COC2)N(Cc2ccc(F)c(Cl)c2)C(=O)CN1c1ncc(Cl)cc1F (stereo not drawn) [Compound 668, 1-(5-chloro-3-fluoropyridin-2-yl)-4-(3-chloro-4-fluorobenzyl)-3-(oxetan-3-yl)piperazine-2,5-dione]	1.4 µM
O=C1C(C2CC(O)C2)N(Cc2ccc(F)cc2)C(=O)CN1c1ccc(Cl)cc1F (single isomer, unassigned) [Compound 866B, 1-(4-chloro-2-fluorophenyl)-4-(4-fluorobenzyl)-3-(3-hydroxycyclobutyl)piperazine-2,5-dione]	>39 µM
CC1(C(F)F)C(=O)N(c2ncc(Cl)cc2F)CC(=O)N1Cc1ccc(C(F)(F)F)cc1 (stereo not drawn) [Compound 657, 1-(5-chloro-3-fluoropyridin-2-yl)-3-(difluoromethyl)-3-methyl-4-(4-(trifluoro-methyl)-benzyl)piperazine-2,5-dione]	1.4 µM
NC(=O)C12CC(C3C(=O)N(c4ncc(Cl)cc4F)CC(=O)N3Cc3ccc(C(F)(F)F)cc3)(C1)C2 (stereo not drawn) [Compound 783, 3-(4-(5-chloro-3-fluoro-pyridin-2-yl)-3,6-dioxo-1-(4-(trifluoromethyl)-benzyl)piperazin-2-yl)bicyclo[1.1.1]pentane-1-carboxamide]	3.08 µM
CNC(=O)N[C@H]1C[C@]2(C1)C(=O)N(c1ccc(C#N)cc1F)CC(=O)N2Cc1ccc(C(F)(F)F)cc1 [Compound 463B]	0.4 µM
CC(=O)NCC1C(=O)N(c2ncc(Cl)cc2F)CC(=O)N1Cc1ccc(Cl)cc1 (stereo not drawn) [Compound 632, N-((4-(5-chloro-3-fluoro-pyridin-2-yl)-1-(4-chloro-benzyl)-3,6-dioxopiperazin-2-yl)methyl)acetamide]	31.7 µM
CC1(C)C(=O)N(c2ccc(C#N)cc2F)CC(=O)N1Cc1ccc(C(F)(F)F)cc1 [Compound 279, 4-(3,3-dimethyl-2,5-dioxo-4-(4-(trifluoromethyl)-benzyl)piperazin-1-yl)-3-fluorobenzonitrile]	1.2 µM
CC1(C2C(=O)N(c3ncc(Cl)cc3F)CC(=O)N2Cc2ccc(C(F)(F)F)cc2)COC1 (stereo not drawn) [Compound 623, 1-(5-chloro-3-fluoropyridin-2-yl)-3-(3-methyloxetan-3-yl)-4-(4-(trifluoro-methyl)-benzyl)piperazine-2,5-dione]	3.0 µM
CNC(=O)N1CC2(C1)C(=O)N(c1ccc(C(F)(F)F)cc1)CC(=O)N2Cc1ccc(C(F)(F)F)cc1 [Compound 151, N-methyl-6,9-dioxo-5-(4-(trifluoromethyl)benzyl)-8-(4-(trifluoromethyl)phenyl)-2,5,8-triazaspiro[3.5]nonane-2-carboxamide]	12.2 µM
CCOC(=O)C1CC2(C1)C(=O)N(c1ncc(Cl)cc1F)CC(=O)N2Cc1ccc(C(F)(F)F)cc1 (single isomer, unassigned) [Compound 859A, ethyl 8-(5-chloro-3-fluoropyridin-2-yl)-6,9-dioxo-5-(4-(trifluoromethyl)benzyl)-5,8-diazaspiro[3.5]nonane-2-carboxylate]	0.6 µM
CNC(=O)N1CC2(C1)C(=O)N(c1cccc(Cl)c1)CC(=O)N2Cc1ccc(C(F)(F)F)cc1 [Compound 163, 8-(3-chlorophenyl)-N-methyl-6,9-dioxo-5-(4-(trifluoromethyl)benzyl)-2,5,8-triazaspiro[3.5]-nonane-2-carboxamide]	7.3 µM
CC(C)N1CC(=O)N(C(C)c2ccc(C(F)(F)F)cc2)C2(CN(c3ccccn3)C2)C1=O (stereo not drawn) [Compound 138, 8-isopropyl-2-(pyridin-2-yl)-5-(1-(4-(trifluoromethyl)-phenyl)ethyl)-2,5,8-triazaspiro[3.5]nonane-6,9-dione]	7.0 µM
O=C1C(C2COC2)N(Cc2ccc(F)cc2)C(=O)CN1c1ncc(Cl)cc1F (stereo not drawn) [Compound 646, 1-(5-chloro-3-fluoropyridin-2-yl)-4-(4-fluorobenzyl)-3-(oxetan-3-yl)piperazine-2,5-dione]	3.3 µM
CNC(=O)N1CC2(C1)C(=O)N(c1ccc(F)cc1)CC(=O)N2Cc1ccc(C(F)(F)F)cc1 [Compound 149, 8-(4-fluorophenyl)-N-methyl-6,9-dioxo-5-(4-(trifluoromethyl)benzyl)-2,5,8-triazaspiro[3.5]-nonane-2-carboxamide]	8.9 µM
CC(C)N1CC(=O)N(C(C)c2ccc(C(F)(F)F)cc2)C2(CN(c3ccccc3)C2)C1=O (stereo not drawn) [Compound 140, 8-isopropyl-2-phenyl-5-(1-(4-(trifluoromethyl)phenyl)-ethyl)-2,5,8-triazaspiro-[3.5]nonane-6,9-dione]	4.4 µM
Cc1cnc(N2CC(=O)N(Cc3ccc(C(F)(F)F)cc3)C(C3COC3)C2=O)c(F)c1 (single isomer, unassigned) [Compound 691A, 1-(3-fluoro-5-methylpyridin-2-yl)-3-(oxetan-3-yl)-4-(4-(trifluoromethyl)benzyl)piperazine-2,5-dione]	12.06 µM
COc1cnc(N2CC(=O)N(Cc3ccc(Cl)c(F)c3)C(C3COC3)C2=O)c(F)c1 (stereo not drawn) [Compound 772, 4-(4-chloro-3-fluoro-benzyl)-1-(3-fluoro-5-methoxypyridin-2-yl)-3-(oxetan-3-yl)piperazine-2,5-dione]	7.7 µM
CC(=O)N1CC2(C1)C(=O)N(c1ncc(Cl)cc1F)CC(=O)N2[C@@H](C)c1ccc(Cl)cc1 [Compound 556, (S)-2-acetyl-8-(5-chloro-3-fluoropyridin-2-yl)-5-(1-(4-chlorophenyl)ethyl)-2,5,8-triazaspiro[3.5]nonane-6,9-dione]	2.7 µM
